In patent US4260601A, “Chemical compounds” (Nyegaard & Co. A/S, priority 1979, dated 1981):
Square brackets hold non-standard residues; d marks the D form. Peptide text beside a SMILES is read from it. pGlu = O=C1CC[C@@H](C(=O)O)N1

Assay: anorexigenic / biological activity of the peptide (no method described)

For O=C(O)CNC(=O)[C@H](Cc1c[nH]cn1)NC(=O)[C@@H]1CCC(=O)N1 [synthetic peptide, L-(pyro)glutamyl-L-histidyl-glycine] ([pGlu]-His-Gly-OH), the “biological activity of the synthetic peptide versus the biogenic material isolated from urine” value (comparison with biogenic material isolated from urine) was “comparable biological activity” and the anorexigenic properties (statement in words, peptide found in the urine of patients suffering from severe anorexia) was “possesses interesting anorexigenic properties”.
